For this assay, the system named is GA 0055 tumor. Briefly: Anti-tumor activity against GA 0055 gastric tumor PDX in HuMice and NOD/SCID mice. The assay is classed as in vivo, mouse. The source says:
In yet another example of the utility of the HuPrime™ 3.0 mouse model (PDX human immunocompetent NOD/SCID mouse with CD34^+ hSC+PDX gastric tumor), patient cells derived from a human patient diagnosed with over-expressing gastric cancer, GA 0055, were engrafted into HuPrime™ 3.0 mice.
The HuPrime™ 3.0 mice engrafted with GA 0055 were divided into six groups, four mice each. Three groups were engrafted with UCB human stem cells and three groups were not.
Patient tumor fragments of NSCLC or gastric tumor tissue derived from diseased seed mice were engrafted 2.5 weeks after the CD34+ cell inoculation in order to create patient derived xenograft (PDX) models. Solid tumor sample fragments from seed mice inoculated with selected primary human lung or gastric cancer tissues were harvested and used for inoculation into mice. Each mouse was inoculated subcutaneously at the right flank with one tumor fragment (2-3 mm in diameter) for tumor development. The treatments were started when mean tumor size reached approximately 100-150 mm^3 The transplanted animals were monitored by weekly bleed and FACS analysis for hCD45^+ cells in peripheral blood.

On to `N.N.[Cl][Pt][Cl]` [Cisplatin], for which the “treatment response, stained GA 0055 tumor cross-sections” value (5 mg/kg Cisplatin, H&E stained cross-section (40x10), FIG. 6A) is “effective”. Also, under “HuMice mice (reconstituted human immunocompetent) engrafted with GA 0055, with vs without treatment, FIG. 7A, 7C”, the tumor growth entry is reported as “slowed tumor growth”.

These data come from patent US20150283269A1, “RECONSTITUTED HUMAN IMMUNE SYSTEM IN A PATIENT DERIVED XENOGRAFT MOUSE MODEL” (Crown Bioscience Inc., priority 2014, published 2015).
